Source: ChEMBL document CHEMBL1147564, “Synthesis and anti-inflammatory activity of natural and semisynthetic geranyloxycoumarins” (2004)

Tests used:
Assay type in all cases: functional
Mus musculus [1] = organism: Mus musculus; assay: Inhibitory activity against mouse uM/cm**2 (control=7.0)
Mus musculus [2] = organism: Mus musculus; assay: (§1) Percent uM/cm**2; set-up: concentration or dose not given beside the values
Mus musculus [3] = organism: Mus musculus; assay: as §1

| Compound | ear oedema weight (Mus musculus [1]) [mg] | Reduction (Mus musculus [2]) [%] | Reduction (Mus musculus [3]) [%] |
| --- | --- | --- | --- |
| CC(=O)Oc1c(OC/C=C(\C)CCC=C(C)C)ccc2ccc(=O)oc12 | 3.4 | 51 |  |
| CC(C)=CCC/C(C)=C/COc1ccc2ccc(=O)oc2c1C | 4.8 | 31 |  |
| CC(C)=CCC/C(C)=C/COc1ccc2ccc(=O)oc2c1O | 4.3 | 39 |  |
| CC(C)=CCC/C(C)=C/COc1ccc2ccc(=O)oc2c1Cl | 4.5 | 36 |  |
| CCCCCOc1c(OC/C=C(\C)CCC=C(C)C)ccc2ccc(=O)oc12 | 6.4 | 9 |  |
| CC(C)=CCC/C(C)=C/COc1ccc2ccc(=O)oc2c1OC/C=C(\C)CCC=C(C)C | 5.1 | 27 |  |
| CC(C)=CCC/C(C)=C/COc1ccc2ccc(=O)oc2c1F | 5.1 | 27 |  |
| CC(C)=CCC/C(C)=C/COc1ccc2ccc(=O)oc2c1Br | 4 | 43 |  |
| CC(C)=CCC/C(C)=C/COc1ccc2ccc(=O)oc2c1I | 5 | 29 |  |
| CC(C)=CCC/C(C)=C/COc1ccc2ccc(=O)oc2c1 [AURAPTENE] | 3.4 | 51 |  |
| COc1c(OC/C=C(\C)CCC=C(C)C)ccc2ccc(=O)oc12 [COLLININ] | 3.7 | 47 |  |
| COc1ccc2c(c1)c(CC(=O)O)c(C)n2C(=O)c1ccc(Cl)cc1 [INDOMETHACIN] | 3.7 |  | 47 |
